The source made the active and inactive calls. No cut-off for these calls is given here.
Columns and labels:
HEK293 [1] = test: Chemo-sensitizing activity against human HEK293 cells assessed as reversal fold at 1 uM measured after 72 hrs in presence of mitoxatrone by CCK8 assay relative to control; assay type: functional
A549 [2] = test: Chemo-sensitizing activity against human A549 cells assessed as reversal fold at 2 uM measured after 72 hrs in presence of topotecan by CCK8 assay relative to control; assay type: functional
A549 [3] = test: Chemo-sensitizing activity against becatecarin-selected ABCG2-overexpressing human A549/Bec150 cells assessed as reversal fold at 2 uM measured after 72 hrs in presence of mitoxantrone by CCK8 assay relative to control; assay type: functional
HEK293 [4] = test: Chemo-sensitizing activity against ABCB1-overexpressing human HEK293/MDR19 cells assessed as reversal fold at 2 uM measured after 72 hrs in presence of vincristine by CCK8 assay relative to control; assay type: functional
KB-V1 [5] = test: Chemo-sensitizing activity against ABCB1-oveexpressing human KB-V1 cells assessed as reversal fold at 1 uM measured after 72 hrs in presence of colchicine by CCK8 assay relative to control; assay type: functional
KB-V1 [6] = test: Chemo-sensitizing activity against ABCB1-overexpressing human KB-V1 cells assessed as reversal fold at 2 uM measured after 72 hrs in presence of paclitaxel by CCK8 assay relative to control; assay type: functional
HEK293 [7] = test: Chemo-sensitizing activity against human HEK293 cells assessed as reversal fold at 5 uM measured after 72 hrs in presence of colchicine by CCK8 assay relative to control; assay type: functional
ABCG2 = test: Resistance factor, ratio of IC50 for ABCG2-overexpressing human HEK293/482R cells to IC50 for human HEK293 cells; assay type: ADME; settings: read-out: Ratio IC50
OVCAR-8 [8] = test: Chemo-sensitizing activity against human OVCAR-8 cells assessed as reversal fold at 2 uM measured after 72 hrs in presence of paclitaxel by CCK8 assay relative to control; assay type: functional
NCI-H460 [9] = test: Cytotoxicity against mitoxantrone-selected ABCG2-overexpressing human NCI-H460/MX20 cells assessed as reduction in cell viability measured after 72 hrs by CCK8 assay; assay type: ADME, cell-based; settings: NCI-H460, 72 h
[10] = Cytotoxicity against becatecarin-selected ABCG2-overexpressing human A549/Bec150 cells assessed as cell viability at 1 to 5 uM measured after 72 hrs by CCK8 assay; assay type: ADME, cell-based; settings: dose 1-5 µM, read-out: Activity
KB 3-1 = test: Chemo-sensitizing activity against human KB 3-1 cells assessed as reversal fold at 1 uM measured after 72 hrs in presence of colchicine by CCK8 assay relative to control; assay type: functional
[11] = Cytotoxicity against human A549 cells assessed as cell viability at 1 to 5 uM measured after 72 hrs by CCK8 assay; assay type: cell-based; settings: dose 1-5 µM, read-out: Activity
NCI-H460 [12] = test: Effect on ABCG2 protein expression in mitoxantrone-selected ABCG2-overexpressing human NCI-H460/MX20 cells at 1 to 5 uM incubated for 72 hrs by immunoblot analysis; assay type: functional, cell-based; settings: dose 1-5 µM
A549 [13] = test: Chemo-sensitizing activity against human A549 cells assessed as reversal fold at 5 uM measured after 72 hrs in presence of topotecan by CCK8 assay relative to control; assay type: functional
NCI/ADR-RES = test: Chemo-sensitizing activity against ABCB1-overexpressing human NCI/ADR-RES cells assessed as reversal fold at 2 uM measured after 72 hrs in presence of vincristine by CCK8 assay relative to control; assay type: functional
HEK293 [14] = test: Chemo-sensitizing activity against ABCB1-overexpressing human HEK293/MDR19 cells assessed as reversal fold at 5 uM measured after 72 hrs in presence of colchicine by CCK8 assay relative to control; assay type: functional
A549 [15] = test: Chemo-sensitizing activity against becatecarin-selected ABCG2-overexpressing human A549/Bec150 cells assessed as reversal fold at 5 uM measured after 72 hrs in presence of mitoxantrone by CCK8 assay relative to control; assay type: functional
KB-V1 [16] = test: Chemo-sensitizing activity against ABCB1-overexpressing human KB-V1 cells assessed as reversal fold at 5 uM measured after 72 hrs in presence of vincristine by CCK8 assay relative to control; assay type: functional
HEK293 [17] = test: Chemo-sensitizing activity against human HEK293 cells assessed as reversal fold at 2 uM measured after 72 hrs in presence of mitoxatrone by CCK8 assay relative to control; assay type: functional
HEK293 [18] = test: Chemo-sensitizing activity against human HEK293 cells assessed as reversal fold at 2 uM measured after 72 hrs in presence of vincristine by CCK8 assay relative to control; assay type: functional
HEK293 [19] = test: Chemo-sensitizing activity against human HEK293 cells assessed as reversal fold at 2 uM measured after 72 hrs in presence of topotecan by CCK8 assay relative to control; assay type: functional
[20] = Cytotoxicity against ABCG2-overexpressing human HEK293/482R cells assessed as cell viability at 1 to 5 uM measured after 72 hrs by CCK8 assay; assay type: ADME, cell-based; settings: ABCG2-overexpressing HEK293/482R cells, dose 1-5 µM, read-out: Activity
HEK293 [21] = test: Chemo-sensitizing activity against ABCG2-overexpressing human HEK293/482R cells assessed as reversal fold at 1 uM measured after 72 hrs in presence of SN-38 by CCK8 assay relative to control; assay type: functional
OVCAR-8 [22] = test: Chemo-sensitizing activity against human OVCAR-8 cells assessed as reversal fold at 1 uM measured after 72 hrs in presence of paclitaxel by CCK8 assay relative to control; assay type: functional
A549 [23] = test: Chemo-sensitizing activity against human A549 cells assessed as reversal fold at 1 uM measured after 72 hrs in presence of topotecan by CCK8 assay relative to control; assay type: functional
HEK293 [24] = test: Chemo-sensitizing activity against human HEK293 cells assessed as reversal fold at 5 uM measured after 72 hrs in presence of topotecan by CCK8 assay relative to control; assay type: functional
HEK293 [25] = test: Chemo-sensitizing activity against ABCG2-overexpressing human HEK293 cells assessed as reversal fold at 5 uM measured after 72 hrs in presence of topotecan by CCK8 assay relative to control; assay type: functional
OVCAR-8 [26] = test: Chemo-sensitizing activity against human OVCAR-8 cells assessed as reversal fold at 5 uM measured after 72 hrs in presence of colchicine by CCK8 assay relative to control; assay type: functional
A549 [27] = test: Chemo-sensitizing activity against becatecarin-selected ABCG2-overexpressing human A549/Bec150 cells assessed as reversal fold at 1 uM measured after 72 hrs in presence of topotecan by CCK8 assay relative to control; assay type: functional

Question: For `C=C(C)[C@H](CC=C(C)C)Cc1c(O)cc(O)c2c1O[C@H](c1ccc(O)cc1O)CC2=O` [SOPHORAFLAVANONE G], which “fold change (FC)” value (HEK293 [1]) is on record?
Answer: 1

Question: And the “fold change (FC)” value (A549 [2])?
Answer: 1.2

Question: What about the “fold change (FC)” value (A549 [3]) of the same compound?
Answer: 5.9

Question: What about the “fold change (FC)” value (HEK293 [4]) of the same compound?
Answer: 0.9

Question: What about the “fold change (FC)” value (KB-V1 [5]) of the same compound?
Answer: 0.9

Question: What about the “fold change (FC)” value (KB-V1 [6]) of the same compound?
Answer: 1.2

Question: And the “fold change (FC)” value (HEK293 [7])?
Answer: 1

Question: What about the selectivity ratio (ABCG2) of the same compound?
Answer: 1.4

Question: What about the “fold change (FC)” value (OVCAR-8 [8]) of the same compound?
Answer: 1

Question: What about the IC50 (NCI-H460 [9]) of the same compound?
Answer: 22.1 µM

Question: And the viability at 72 h, up to 5 µM [10]?
Answer: > 90%

Question: And the “fold change (FC)” value (KB 3-1)?
Answer: 1

Question: And the viability at 72 h, up to 5 µM [11]?
Answer: > 90%

Question: And the Activity (NCI-H460 [12])?
Answer: inactive

Question: And the “fold change (FC)” value (A549 [13])?
Answer: 1.4

Question: What about the “fold change (FC)” value (NCI/ADR-RES) of the same compound?
Answer: 1

Question: And the “fold change (FC)” value (HEK293 [14])?
Answer: 0.6

Question: What about the “fold change (FC)” value (A549 [15]) of the same compound?
Answer: 9.1

Question: And the “fold change (FC)” value (KB-V1 [16])?
Answer: 1.3

Question: What about the “fold change (FC)” value (HEK293 [17]) of the same compound?
Answer: 0.9

Question: What about the “fold change (FC)” value (HEK293 [18]) of the same compound?
Answer: 0.6

Question: What about the “fold change (FC)” value (HEK293 [19]) of the same compound?
Answer: 0.9

Question: What about the viability at 72 h, up to 5 µM [20] of the same compound?
Answer: > 90%

Question: What about the “fold change (FC)” value (HEK293 [21]) of the same compound?
Answer: 2.1

Question: And the “fold change (FC)” value (OVCAR-8 [22])?
Answer: 0.8

Question: And the “fold change (FC)” value (A549 [23])?
Answer: 1.1

Question: What about the “fold change (FC)” value (HEK293 [24]) of the same compound?
Answer: 0.8

Question: What about the “fold change (FC)” value (HEK293 [25]) of the same compound?
Answer: 5

Question: What about the “fold change (FC)” value (OVCAR-8 [26]) of the same compound?
Answer: 1.1

Question: And the “fold change (FC)” value (A549 [27])?
Answer: 1.7
